Reference: patent US20250295668A1, “METHODS FOR INDUCING COLANIC ACID BIOSYNTHESIS” (priority 2024, published 2025)

Assays:
cps operon = assay: Disk diffusion assay for cps induction, SG20781 cpsB::lacZ reporter; assay type: cell-based, E. coli; settings: SG20781, filter paper disks 10 or 100 μg, 24 hours at 37° C.
Experimental: For antibiotic screening targeting cps expression, the SG20781 strain (MC4100 lon+cpsB10::lacZ Mu-immλ) was used. The bacteria were cultured overnight at 37° C. in Luria-Broth (LB) medium and evenly plated on X-gal (40 μg/mL) supplemented LB agar plates, and incubated overnight.
E. coli strain SG20781 was used to assess antibiotic cps induction via disk diffusion as previously described [PMID: 14553918]. In brief, an overnight bacteria culture was spread onto LB agar containing 0.1 mg ml-1 5-bromo-4-chloro-3-indolyl-β-D-galactoside (X-gal). […] The soaked filter papers were placed onto the bacteria-seeding plates and incubated for 24 hours at 37° C.
Certain β-lactam antibiotics trigger the overexpression of the cps operon in E. coli [PMID: 14553918]. To validate this finding, a disk diffusion assay was performed using SG20781, an E. coli strain that harbors a LacZ reporter for the cps operon transcriptional regulation. Using a colorimetric assay, an increased level of […] reacts with X-gal, resulting in an intensified blue coloration as a result of the transcriptional up-regulation of the cps operon.

PBP4 = PBP4 (Escherichia coli, UniProt P24228); settings: literature, PMID 25733506; cited from earlier work
wildtype E. coli = assay: Colanic acid measurement (fucose quantification) in wildtype E. coli culture medium; assay type: cell-based
Experimental: For colanic acid quantification, E. coli Keio mutants and the parental strain BW25113 were cultured overnight at 37° C. in M9 minimum medium [PMID: 28436966]. Bacteria were then removed by centrifugation and filtered for colanic acid measurement.
The desired bacterial strain was first inoculated and cultured in M9 minimum medium overnight at 37° C. to obtain the seeding culture. The OD 600 was measured, and the seeding bacteria were diluted to OD600=0.02 in M9 minimum medium for another 16 hours. After the incubation, bacterial cultures were collected in 50 mL tubes, spun down at 4,000 g at 4° C. for 30 min, filtered, and 25 mL of supernatant was collected per 50 ml conical tube. Ice-cold 100% ethanol (EtOH) was added to make a final 50% EtOH solution for precipitation, and the mixture was kept at 4° C. overnight. Once precipitation occurred, the liquid was carefully removed after centrifugation at 4,000 g at 4° C. for 50 min. The pellet was washed once with cold 80% EtOH and then air-dried in a hood. The pellet from every 50 mL culture was resuspended in 500 μL distilled H2O. The solution was sonicated for 60 minutes at 37° C., followed by centrifugation at 4000 g at 4° C. for 10 minutes. A 200 μL sample was mixed with 30 μL hydrochloric acid (320331-500 mL, Sigma-Aldrich) and boiled for 2 hours. Subsequently, 60 μL 5M NaOH and 150 μL NaHCO3/NaOH buffer were added to reach a pH of 6-8, calibrated by 1M HCl or NaOH solutions. The fucose quantification assay was then carried out using a K-FUCOSE kit (Megazyme) according to the manufacturer's protocol.
Next, colanic acid in the bacteria culture medium was quantified via monosaccharide-fucose-from acid-hydrolyzed polysaccharide precipitates. […] Calculations were performed to determine the equivalent dosage by weight in a mammalian subject. Briefly, a typical mouse consumes 5-10 ml of water per day and weighs between 30-40 g. Using the 1.8 μg/mL concentration, a lower bound of 0.225 mg/kg (0.0018 mg/mL×5 ml[…]0.04 kg) and a higher bound of 0.6 mg/kg (0.0018 mg/mL×10 ml÷0.03 kg) were identified. […] In wild-type bacteria treated with cephaloridine and Alon E. coli mutants colanic acid production increased during the exponential growth phase and remained elevated in the stationary phase (FIG. 1D).

Compound	cps induction (blue coloration) (cps operon)	affinity for PBP4 (PBP4)	colanic acid production vs untreated wildtype control (wildtype E. coli; cephalothin 0.625 μg/mL) [fold]	colanic acid production vs untreated wildtype control (wildtype E. coli; penicillin G 5 μg/mL) [fold]
CC1(C)S[C@@H]2[C@H](NC(=O)[C@H](N)c3ccccc3)C(=O)N2[C@H]1C(=O)O [ampicillin]	promote various shades of blue coloration	higher affinity for PBP4	–	–
CC1(C)S[C@@H]2[C@H](NC(=O)C(C(=O)O)c3ccccc3)C(=O)N2[C@H]1C(=O)O (stereo partly shown) [carbenicillin]	promote various shades of blue coloration	–	–	–
Cc1nnc(SCC2=C(C(=O)O)N3C(=O)[C@@H](NC(=O)Cn4cnnn4)[C@H]3SC2)s1 [cefazolin]	promote various shades of blue coloration	–	–	–
CO/N=C(\C(=O)N[C@@H]1C(=O)N2C(C(=O)O)=C(COC(N)=O)CS[C@H]12)c1ccco1 [cefuroxime]	promote various shades of blue coloration	–	–	–
CC(=O)OCC1=C(C(=O)O)N2C(=O)[C@@H](NC(=O)Cc3cccs3)[C@H]2SC1 [cephalothin]	promote various shades of blue coloration	–	3.5	–
CC1(C)S[C@@H]2[C@H](NC(=O)Cc3ccccc3)C(=O)N2[C@H]1C(=O)O [penicillin G]	promote various shades of blue coloration	higher affinity for PBP4	–	3.25
